24 compounds from patent publication US20210317145A1, “Boronic Acid Derivatives” (Merck Patent GmbH, priority 2018, published 2021) can be followed below.

In assay [1] the target is LMP7 (purified human immuno proteasome) (Homo sapiens, UniProt P20618+P28062). In words: Determination of LMP7 activity (fluorescence intensity assay, Suc-LLVY-AMC). The assay is classed as biochemical. The following applies: for Selectivity LMP7 vs Beta5: LMP7 versus Beta5, incubation for 20 minutes; for IC50: purified human immuno proteasome 0.25 nM, incubation for 20 minutes at 25° C., Suc-LLVY-AMC 40 μM. Here is the method:
Determination of LMP7 Activity:
Measurement of LMP7 inhibition is performed in 384 well format based on fluorescence intensity assay.
(§1) Purified human immuno proteasome (0.25 nM) and serial diluted compounds in DMSO (range of concentrations from 30 μM to […]) or controls are incubated for 20 minutes or 120 minutes (long incubation) at 25° C. in assay buffer containing 50 mM Tris pH 7.4, 0.03% SDS, 1 mM EDTA and 1% DMSO. The reaction is initiated by the addition of the fluorogenic peptide substrate, Suc-LLVY-AMC (Bachem 1-1395), at a concentration of 40 μM. After 60 minutes of incubation at 37° C., fluorescence intensity is measured at λex=350 nm and λem=450 nm with a fluorescence reader (Perkin Elmer Envision reader or equivalent).
(§2) Unless indicated otherwise the results are obtained after incubation for 20 minutes.

Assay [2] deals with Beta5 (purified human constitutive proteasome) (Homo sapiens, UniProt P20618+P28074). As to the kind of experiment: Determination of Beta5 activity (fluorescence intensity assay, Suc-LLVY-AMC). As to conditions: purified human constitutive proteasome 1.25 nM, incubation for 20 minutes at 25° C., Suc-LLVY-AMC 40 μM. The assay is classed as biochemical. The method, then:
Determination of Beta5 Activity:
Measurement of Beta5 inhibition is performed in 384 well format based on fluorescence intensity assay.
as §1, with “constitutive” for “immuno”, “(1.25” for “(0.25”
as §2

Where only a bound is given, the exact number is not on record here.

A word on the IC50: it is the concentration that gives 50% inhibition. Higher therefore signals lower potency. `O=C(CCO)N[C@@H](Cc1coc2ccccc12)B(O)O` [Compound 24, [(1R)-2-(benzofuran-3-yl)-1-(3-hydroxypro-panoylamino)ethyl]-boronic acid]: in assay [1], the “Selectivity LMP7 vs Beta5” value is recorded as “++ (100 ≤ Selectivity < 300)” and the IC50 was at most 0.05 µM. For the same compound, the IC50 in assay [2] was in the range of 0.5 to 5 µM.

For the compound `COc1cccc2occ(C[C@H](NC(=O)CSC)B(O)O)c12` [Compound 4, [(1R)-2-(4-methoxy-benzofuran-3-yl)-1-[(2-methylsulfanylacetyl)-amino]ethyl]boronic acid], the “Selectivity LMP7 vs Beta5” value in assay [1] is listed as “+ (Selectivity <100)”. Also, the IC50 is 0.5 to 5 µM in assay [1] and 5 to 30 µM in assay [2].

As to `Cc1cccc2c1OC[C@H]2C[C@H](NC(=O)[C@@H]1CCOC1)B(O)O` [Compound 42, [(1R)-2-[(3S)-7-methyl-2,3-dihydrobenzofuran-3-yl]-1-[[(3R)-tetra-hydrofuran-3-carbonyl]-amino]ethyl]boronic acid], in assay [1], the “Selectivity LMP7 vs Beta5” value is recorded as “+++ (300 ≤ Selectivity < 500)” and the IC50 was in the range of 0.05 to 0.5 µM. The compound also gave an IC50 in assay [2] of 5 to 30 µM.

Take `O=C(N[C@@H](Cc1coc2ccccc12)B(O)O)C1Cc2ccccc2O1` (single isomer, unassigned) [Compound 37]: the “Selectivity LMP7 vs Beta5” value in assay [1] (listed as drawing 87) is “+++ (300 ≤ Selectivity < 500)”. Further, the IC50 in assay [1] was at most 0.05 µM; in assay [2], 0.5 to 5 µM.

For the compound `O=C(N[C@@H](C[C@@H]1COc2ccccc21)B(O)O)[C@@H]1CCOC1` [Compound 41, [(1R)-2-[(3S)-2,3-dihydrobenzofuran-3-yl]-1-[[(3R)-tetra-hydrofuran-3-carbonyl]-amino]ethyl]boronic acid], in assay [1], the “Selectivity LMP7 vs Beta5” value is on record as “++++ (Selectivity ≥ 500)”. Also, the IC50 was in the range of 0.05 to 0.5 µM in assay [1] and 5 to 30 µM in assay [2].

Consider `O=C(N[C@@H](Cc1coc2ccccc12)B(O)O)[C@@H]1CCOC1` [Compound 33, [(1R)-2-(benzofuran-3-yl)-1-[[(3R)-tetrahydro-furan-3-carbonyl]-amino]ethyl]boronic acid], for which, in assay [1], the “Selectivity LMP7 vs Beta5” value is given as “++++ (Selectivity ≥ 500)” and the IC50 is at most 0.05 µM. Moreover, the IC50 in assay [2] lay in the range of 0.5 to 5 µM.

As for `CSCC(=O)N[C@@H](CC1COc2c(C)cccc21)B(O)O` (stereo partly drawn) [Compound 10, [(1R)-2-(7-methyl-2,3-dihydrobenzofuran-3-yl)-1-[(2-methyl-sulfanylacetyl)amino]-ethyl]boronic acid], in assay [1], the “Selectivity LMP7 vs Beta5” value is on record as “++++ (Selectivity ≥ 500)”. The IC50 in assay [1] is at most 0.05 µM; in assay [2] it was 5 to 30 µM.

For `O=C(N[C@@H](Cc1coc2ccccc12)B(O)O)[C@H]1CCOC1` [Compound 32, [(1R)-2-(benzofuran-3-yl)-1-[[(3S)-tetrahydro-furan-3-carbonyl]-amino]ethyl]boronic acid], the “Selectivity LMP7 vs Beta5” value in assay [1] is “++ (100 ≤ Selectivity < 300)”. The IC50 in assay [1] is at most 0.05 µM; in assay [2], 5 to 30 µM.

As to `CSCC(=O)N[C@@H](C[C@@H]1COc2ccccc21)B(O)O` [Compound 5, [(1R)-2-[(3S)-2,3-dihydrobenzofuran-3-yl]-1-[(2-methylsulfan-ylacetyl)amino]ethyl]-boronic acid], in assay [1], the “Selectivity LMP7 vs Beta5” value was “+++ (300 ≤ Selectivity < 500)”. In addition, the IC50 was at most 0.05 µM in assay [1] and 0.5 to 5 µM in assay [2].

In the case of `CSCC(=O)N[C@@H](Cc1coc2c(C)c(Cl)ccc12)B(O)O` [Compound 14, [(1R)-2-(6-chloro-7-methylbenzofuran-3-yl)-1-[(2-methyl-sulfanylacetyl)amino]-ethyl]boronic acid], in assay [1], the “Selectivity LMP7 vs Beta5” value is reported as “+++ (300 ≤ Selectivity < 500)” and the IC50 was at most 0.05 µM. In assay [2], the IC50 is 0.5 to 5 µM.

For the compound `CSCC(=O)NC(CC1COc2ccccc21)B(O)O` (stereo not drawn) [Compound 19, [2-(2,3-dihydrobenzo-furan-3-yl)-1-[(2-methylsulfanylacetyl)-amino]ethyl]boronic acid], in assay [1], the “Selectivity LMP7 vs Beta5” value is “++++ (Selectivity ≥ 500)” and the IC50 was at most 0.05 µM. In assay [2], this compound displayed an IC50 of 5 to 30 µM.

Consider `O=C(CSCCCO)N[C@@H](Cc1coc2ccccc12)B(O)O` [Compound 15, [(1R)-2-(benzofuran-3-yl)-1-[[2(3-hydroxy-propylsulfanyl)acetyl]-amino]ethyl]boronic acid], for which the “Selectivity LMP7 vs Beta5” value in assay [1] is reported as “+ (Selectivity <100)”. The IC50 in assay [1] is at most 0.05 µM; in assay [2], 0.05 to 0.5 µM.

As to `CSCC(=O)NC(Cc1coc2c(C)c(Cl)ccc12)B(O)O` (stereo not drawn) [Compound 20, [2-(6-chloro-7-methyl-benzofuran-3-yl)-1-[(2-methylsulfanylacetyl)-amino]ethyl]boronic acid], in assay [1], the “Selectivity LMP7 vs Beta5” value is on record as “+++ (300 ≤ Selectivity < 500)” and the IC50 is at most 0.05 µM. The compound further yielded an IC50 in assay [2] of 0.5 to 5 µM.

As to `O=C(N[C@@H](Cc1coc2ccccc12)B(O)O)C1Cc2ccccc2O1` (single isomer, unassigned) [Compound 36], the “Selectivity LMP7 vs Beta5” value in assay [1] (listed as drawing 86) is “+ (Selectivity <100)”. Also, the figures for the IC50 in assay [1] and in assay [2] were at most 0.05 µM and 0.05 to 0.5 µM, respectively.

On to `CSCC(=O)N[C@@H](Cc1coc2c(C)cccc12)B(O)O` [Compound 6, [(1R)-2-(7-methylbenzo-furan-3-yl)-1-[(2-methyl-sulfanylacetyl)amino]-ethyl]boronic acid], for which, in assay [1], the “Selectivity LMP7 vs Beta5” value was “++ (100 ≤ Selectivity < 300)” and the IC50 was at most 0.05 µM. The compound further gave an IC50 in assay [2] of 0.05 to 0.5 µM.

With `CSCC(=O)NC(Cc1coc2c(F)cccc12)B(O)O` (stereo not drawn) [Compound 9, [2-(7-fluorobenzofuran-3-yl)-1-[(2-methyl-sulfanylacetyl)amino]-ethyl]boronic acid], the “Selectivity LMP7 vs Beta5” value in assay [1] is recorded as “++ (100 ≤ Selectivity < 300)”. For the same compound, the values for the IC50 in assay [1] and in assay [2] were at most 0.05 µM and 0.5 to 5 µM, respectively.

`CC(C)(O)CC(=O)N[C@@H](Cc1coc2ccccc12)B(O)O` [Compound 25, [(1R)-2-(benzofuran-3-yl)-1-[(3-hydroxy-3-methylbutanoyl)amino]-ethyl]boronic acid]: in assay [1], the “Selectivity LMP7 vs Beta5” value was “++ (100 ≤ Selectivity < 300)” and the IC50 is at most 0.05 µM. Besides, the IC50 in assay [2] was 5 to 30 µM.

With `O=C(N[C@@H](Cc1coc2ccccc12)B(O)O)[C@@H]1CCCO1` [Compound 26, [(1R)-2-(benzofuran-3-yl)-1-[[(2S)-tetrahydro-furan-2-carbonyl]amino]-ethyl]boronic acid], the “Selectivity LMP7 vs Beta5” value in assay [1] was “++ (100 ≤ Selectivity < 300)”. The IC50 in assay [1] fell in the range of 0.05 to 0.5 µM; in assay [2] it was 5 to 30 µM.

As for `CSCC(=O)N[C@@H](Cc1coc2ccccc12)B(O)O` [Compound 22, [(1R)-2-(benzofuran-3-yl)-1-[(2-methyl-sulfanylacetyl)-amino]ethyl]boronic acid], in assay [1], the “Selectivity LMP7 vs Beta5” value is listed as “++ (100 ≤ Selectivity < 300)” and the IC50 was at most 0.05 µM. This compound came in with an IC50 in assay [2] of 0.5 to 5 µM.

With `COCCC(=O)N[C@@H](Cc1coc2ccccc12)B(O)O` [Compound 31, [(1R)-2-(benzofuran-3-yl)-1-(3-methoxy-propanoylamino)ethyl]-boronic acid], in assay [1], the “Selectivity LMP7 vs Beta5” value was “++ (100 ≤ Selectivity < 300)”. The values for the IC50 in assay [1] and in assay [2] were at most 0.05 µM and 0.05 to 0.5 µM, respectively.

Regarding `CSCC(=O)N[C@@H](Cc1ccc(C)cc1C)B(O)O` [Compound 21, [(1R)-2-(2,4-dimethyl-phenyl)-1-[(2-methyl-sulfanylacetyl)amino]-ethyl]boronic acid], in assay [1], the “Selectivity LMP7 vs Beta5” value is given as “++ (100 ≤ Selectivity < 300)” and the IC50 was at most 0.05 µM. In addition, the IC50 in assay [2] was in the range of 0.5 to 5 µM.

Consider `Cc1cccc2c(C[C@H](NC(=O)[C@H]3CCCO3)B(O)O)coc12` [Compound 29, [(1R)-2-(7-methylbenzo-furan-3-yl)-1-[[(2R)-tetrahydrofuran-2-carbonyl]amino]ethyl]-boronic acid], for which, in assay [1], the “Selectivity LMP7 vs Beta5” value is “++ (100 ≤ Selectivity < 300)” and the concentration for half-maximal inhibition (IC50) is at most 0.05 µM. Further, in assay [2], the IC50 was in the range of 0.5 to 5 µM.

`COCC(=O)N[C@@H](Cc1coc2ccccc12)B(O)O` [Compound 28, [(1R)-2-(benzofuran-3-yl)-1-[(2-methoxy-acetyl)amino]ethyl]-boronic acid]: the “Selectivity LMP7 vs Beta5” value in assay [1] was “+ (Selectivity <100)”. Further, the IC50 in assay [1] was at most 0.05 µM; in assay [2], 0.5 to 5 µM.

For the compound `CSC(C(=O)N[C@@H](Cc1coc2ccccc12)B(O)O)c1ccccc1` (single isomer, unassigned) [Compound 7], in assay [1], the “Selectivity LMP7 vs Beta5” value is on record as “++ (100 ≤ Selectivity < 300)” and the IC50 was at most 0.05 µM. The compound further registered a half-maximal inhibitory concentration (IC50) in assay [2] of 5 to 30 µM.
